Legend:
[1] = system: recombinant Bombyx mori JHAMT; assay: Juvenile hormone synthesis by recombinant juvenile hormone acid methyltransferase (enzyme reaction, reverse phase HPLC); format: biochemical; conditions: 25° C.; for production of the corresponding active juvenile hormone in the reaction solution: 100 μg substrate, S-adenosyl methionine, ten minutes, reverse phase HPLC (FIG. 4); for molecular activity (number of substrate molecules changed to reaction product by one molecule of the enzyme in one minute): Tris-HCL 50 mM, pH 7.5, 1 mM S-adenosyl methionine and 100 μM of each JH acid, mean±standard deviation, n=3
Method: (§1) A reverse phase column (CAPCELL PAK C18 UG80 S-5, 3×150 mm, Shiseido) was attached to an HPLC apparatus (JASCO), and juvenile hormones were detected by measuring absorbance at 217 nm using an ultraviolet detector. Samples were flowed at a rate of 0.5 ml/min, at a column retention temperature of 40° C., for 20 minutes, in 60% acetonitrile or 80% acetonitrile.
100 μg of a juvenile hormone acid (either JH I acid, JH II acid, JH III acid, or farnesoic acid) dissolved in toluene was transferred into a silicone-treated glass test tube (10×150 mm) using a glass capillary, and the solvent was removed under a nitrogen stream. 800 μl of buffer (50 mM Tris-Cl, pH 7.5) and 100 μl of 10 mM S-adenosyl methionine solution were added thereto and mixed sufficiently, then left to stand in a 25° C. thermostat water bath for five minutes. 100 μl of the recombinant protein solution obtained by the method of Example 3 was added thereto to initiate enzyme reaction. After ten minutes, 250 μl of reaction termination solution (methanol:water:concentrated aqueous ammonia=10:9:1) was added to terminate the enzyme reaction 1 ml of isooctane was added and mixed sufficiently, then the mixture was centrifuged (2,000 rpm, 15 minutes, room temperature) to separate the organic solvent layer and the aqueous layer. 100 μl of the organic solvent layer was transferred into a small vial using a glass capillary, and then the solvent was removed under a nitrogen stream to obtain a residue, which was dissolved in 100 μl of acetonitrile to analyze the synthesized juvenile hormone by a method using reverse phase HPLC. […] The molecular activities of the recombinant Bombyx mori JHAMT against JH I acid, JH II acid, JH III acid, and farnesoic acid were determined in conditions where the buffer was Tris-HCL (50 mM, pH 7.5), the reaction temperature was 25° C., and the substrates were 1 mM of S-adenosyl methionine and 100 μM of each JH acid. These activities (the number of substrate molecules changed to reaction product by one molecule of the enzyme in one minute) were 1.80±0.32, 1.65±0.23, 0.79 ±0.06, and 0.48±0.07 (mean±standard deviation n=3), respectively. When a saturated straight chain fatty acid or an unsaturated straight chain fatty acid was used as a substrate, methyl esterification by the enzyme was not observed. Therefore, the enzyme reaction was substrate-specific to juvenile hormone acid.

[2] = molecular target: T1, recombinant Drosophila melanogaster JHAMT (Drosophila melanogaster, UniProt Q9VJK8, F166Y/S182N); assay: Molecular activity of recombinant Drosophila melanogaster juvenile hormone acid methyltransferase; format: biochemical; conditions: Tris-HCL 50 mM, pH 7.5; 25° C.; 1 mM S-adenosyl methionine and 100 μM of each JH acid; mean±standard deviation, n=3
T1 construct: to amplify the coding region of the juvenile hormone acid methyltransferase gene from Drosophila melanogaster; made in house
T1 sequence (Q9VJK8 whole entry F166Y/S182N): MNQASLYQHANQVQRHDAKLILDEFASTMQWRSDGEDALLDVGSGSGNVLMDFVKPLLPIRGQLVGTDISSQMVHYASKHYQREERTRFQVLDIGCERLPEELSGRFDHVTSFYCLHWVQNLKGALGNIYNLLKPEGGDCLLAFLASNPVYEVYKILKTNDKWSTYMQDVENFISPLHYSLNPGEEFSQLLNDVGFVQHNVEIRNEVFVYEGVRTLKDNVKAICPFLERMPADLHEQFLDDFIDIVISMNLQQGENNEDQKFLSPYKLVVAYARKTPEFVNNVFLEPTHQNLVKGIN
Method: as §1
100 μg of a juvenile hormone acid (either JH I acid, JH II acid, JH III acid, or farnesoic acid) dissolved in toluene was transferred into a silicone-treated glass test tube (10×150 mm) using a glass capillary, and the solvent was removed under a nitrogen stream. 800 μl of buffer (50 mM Tris-Cl, pH 7.5) and 100 μl of 10 mM S-adenosyl methionine solution were added thereto and mixed sufficiently, then left to stand in a 25° C. thermostat water bath for five minutes. 100 μl of the recombinant protein solution obtained by the method of Example 3 was added thereto to initiate enzyme reaction. After ten minutes, 250 μl of reaction termination solution (methanol:water:concentrated aqueous ammonia=10:9:1) was added to terminate the enzyme reaction 1 ml of isooctane was added and mixed sufficiently, then the mixture was centrifuged (2,000 rpm, 15 minutes, room temperature) to separate the organic solvent layer and the aqueous layer. […] The molecular activities of the recombinant Bombyx mori JHAMT against JH I acid, JH II acid, JH III acid, and farnesoic acid were determined in conditions where the buffer was Tris-HCL (50 mM, pH 7.5), the reaction temperature was 25° C., and the substrates were 1 mM of S-adenosyl methionine and 100 μM of each JH acid. […]
cDNAs synthesized by reverse transcription of RNA extracted from a whole adult Drosophila melanogaster were used as a template for PCR using the DMJF primer (SEQ ID NO: 17) and DMJR primer (SEQ ID NO: 18) to amplify the coding region of the juvenile hormone acid methyltransferase gene from Drosophila melanogaster. […] The activity of the recombinant protein was determined by the same method as in Example 4, confirming that the protein encoded by the gene had juvenile hormone acid methyltransferase activity. The molecular activities of the recombinant Drosophila melanogaster JHAMT against JH I acid, JH II acid, JH III acid, and farnesoic acid were determined under conditions where the buffer was Tris-HCL (50 mM, pH 7.5), the reaction temperature was 25° C., and the substrates were 1 mM of S-adenosyl methionine and 100 μM of each JH acid. These activities were determined to be 2.67±0.44, 2.07±0.26, 1.76±0.13, and 2.3±0.51 (mean±standard deviation, n=3), respectively.

Row | Structure (SMILES) | production of the corresponding active juvenile hormone in the reaction solution [1] | molecular activity (number of substrate molecules changed to reaction product by one molecule of the enzyme in one minute) [1] | molecular activity [2]
1 | CC[C@]1(C)O[C@@H]1CC/C(C)=C/CC/C(C)=C/C(=O)O [JH II acid] | confirmed to be produced | 1.65±0.23 | 2.07±0.26
2 | CC/C(=C\CC/C(C)=C/C(=O)O)CCC1OC1(C)CC (stereo not drawn) [JH I acid] | confirmed to be produced | 1.80±0.32 | 2.67±0.44
3 | CC(C)=CCCC(C)=CCCC(C)=CC(=O)O [farnesoic acid] | confirmed to be produced | 0.48±0.07 | 2.3±0.51
4 | C/C(=C\C(=O)O)CC/C=C(\C)CCC1OC1(C)C (stereo not drawn) [JH III acid] | confirmed to be produced | 0.79 ±0.06 | 1.76±0.13
